According to patent US20230256094A1, “CANCER RADIOSENSITIZATION BY IN SITU FORMATION OF GOLD NANOPARTICLES AND/OR GOLD NANOCLUSTERS” (BOARD OF REGENTS, THE UNIVERSITY OF TEXAS SYSTEM, priority 2020, published 2023):

What was measured:
[1] = tested on: pancreatic cancer; settings: in combination with SBRT; cited from earlier work
[2] = tested on: 3T3 mouse fibroblast cells; assay: MTS assay of radiosensitization after X-ray irradiation; format: cell-based; settings: 1 mM, 10 hours; X-rays at 4 and 6 Gy
Procedure: Our initial evaluation of radiosensitization via intracellular GNP formation was performed with 3T3 mouse fibroblast cells. […] Radiosensitization with intracellular GNC formation (i.e., delivery of Au^3+) was compared with pre-fabricated albumin-coated GNCs (Albumin-GNC) prepared according to work by Xie^46 and control cells without treatment via MTS assay (FIG. 3B).
3T3 cells were first incubated with either 1 mM of sodium chloroaurate or albumin-GNCs (0.1 mM Au^0)in cell culture media for 10 hours. Then, the cells including the nontreated control were irradiated with X-rays at dosages of 0, 4 and 6 Gy in the X-ray X-RAD 225 CX irradiator system (Precision).
In our future studies we will use a standard clonogenic survival assay for quantitation of the radiosensitization effect.

[3] = tested on: pancreatic cancer cells (MIAPACA2); assay: Confocal fluorescence imaging of in situ GNC synthesis; format: cell-based, human
Procedure: FIG. 4 presents fluorescence confocal images of non-cancerous (HPDE) and cancerous (MIAPaCa2) pancreatic cells treated with either 1 mM of Au^3+ gold ions or premade albumin-GNCs at 1 mM Au^0 for 24 hours. (From left to right) Cells: untreated; treated with albumin-GNCs; treated with Au^3+ gold ions. […] The strong red fluorescence in cancer cells indicated intracellular synthesis of GNCs from gold ions. Scale bars are 25 μm.
We compared in situ synthesis of GNCs by pancreatic cancer cells (MIAPACA2) and pancreatic noncancerous cells (HPDE) (FIG. 4). Confocal fluorescence images were obtained using a Leica TCS SP8 confocal microscope with 561 nm excitation and 610 nm emission optimized for detection of GNCs.

| SMILES | overall survival (OS) [1] [months] | radiosensitization by in situ synthetized GNCs as compared to Albumin-GNC control (MTS) [2] | intracellular distribution of fluorescence from GNCs ([3]; MIAPACA2, optical sectioning) | GNC fluorescence / GNC formation ([3]; MIAPACA2, 1 mM, 24 hours, 561 nm excitation, 610 nm emission) |
| --- | --- | --- | --- | --- |
| Nc1ccn([C@@H]2O[C@H](CO)[C@@H](O)C2(F)F)c(=O)n1 [gemcitabine] | 13.9 | – | – | – |
| [Cl][Au-]([Cl])([Cl])[Cl].[Na+] [sodium chloroaurate] | – | significant increase in radiosensitization | uniformly distributed throughout the intracellular space with a significant fraction in nuclei | striking increase in GNC formation |
